System: Fibroblast
Assay: Incucyte cell viability with human fibroblast; note: filed as whole numbers so only -1 and 0 and 1 occur
Type: toxicity, cell-based
Settings: 10 µM, compound concentration 10 uM
[1] = 0 h, replicate number 2, timepoint 0 hours
[2] = 18 h, replicate number 1, timepoint 18 hours
[3] = 24 h, replicate number 1, timepoint 24 hours
[4] = 6 h, replicate number 1, timepoint 6 hours
[5] = 12 h, replicate number 1, timepoint 12 hours

| Structure (SMILES) | Growth Rate [1] | Growth Rate [2] | Growth Rate [3] | Growth Rate [4] | Growth Rate [5] | Growth Rate (0 h, replicate number 1, timepoint 0 hours) | Growth Rate (12 h, replicate number 2, timepoint 12 hours) | Growth Rate (18 h, replicate number 2, timepoint 18 hours) |
| --- | --- | --- | --- | --- | --- | --- | --- | --- |
| CN1CCN(C(=O)C(C)(C)c2ccc(C(=O)Nc3cn4cc(-c5cc(C(C)(C)C)cc(C(C)(C)C)c5)ccc4n3)cc2)CC1 [T3-CLK-N] | 0 | 1 | 1 | – | – | – | – | – |
| CN1CCN(C(=O)C(C)(C)c2ccc(C(=O)Nc3cn4cc(-c5ccncc5)ccc4n3)cc2)CC1 [T3-CLK] | 0 | 1 | 1 | – | – | – | – | – |
| O=C(Cc1ccc(-c2ccc(OCCN3CCOCC3)cc2)cn1)NCc1ccccc1 [TIRBANIBULIN] | – | 0 | 0 | 0 | 0 | – | – | – |
| Cn1nc(C(F)(F)F)cc1-c1cnc(N2CCc3cc(S(=O)(=O)Nc4c(F)cc(Cl)cc4F)cc(N4CCCC4=O)c32)nc1 [TP-020] | – | 1 | 0 | 1 | 0 | 0 | 1 | 0 |
